This experiment has as its target T1, alpha-amylase (Homo sapiens, UniProt P0DUB6).
T1 sequence (P0DUB6 16-511): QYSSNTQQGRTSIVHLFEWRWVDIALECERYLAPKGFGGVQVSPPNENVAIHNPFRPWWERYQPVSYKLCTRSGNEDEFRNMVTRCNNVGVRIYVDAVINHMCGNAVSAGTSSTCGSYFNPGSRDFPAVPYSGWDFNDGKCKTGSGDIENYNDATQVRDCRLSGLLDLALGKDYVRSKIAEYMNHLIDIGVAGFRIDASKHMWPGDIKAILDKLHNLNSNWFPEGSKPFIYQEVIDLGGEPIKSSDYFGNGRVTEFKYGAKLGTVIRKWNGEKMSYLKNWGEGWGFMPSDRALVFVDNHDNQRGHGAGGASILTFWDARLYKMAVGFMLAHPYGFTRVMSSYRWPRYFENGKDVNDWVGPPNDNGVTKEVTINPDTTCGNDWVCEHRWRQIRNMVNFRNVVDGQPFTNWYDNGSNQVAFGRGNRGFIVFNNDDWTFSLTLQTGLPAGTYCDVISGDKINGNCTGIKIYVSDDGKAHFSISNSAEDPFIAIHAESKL
Put plainly: In vitro inhibition of alpha-amylase (colorimetric, starch to maltose). Type of experiment: biochemical. The note with it: read-out: Inhibitory Activity Alpha-amylase. The procedure: The methods for determining enzyme activities are conventional colorimetric methods.
The principle is as follows: • starch is incubated with an enzyme (for example human salivary amylase).

Regarding `C[C@H]1O[C@H](O[C@H]2[C@H](O)[C@@H](O)[C@@H](O[C@H]3[C@H](O)[C@@H](O)C(O)O[C@@H]3CO)O[C@@H]2CO)[C@H](O)[C@@H](O)[C@@H]1N[C@H]1C=C(CO)[C@@H](O)[C@H](O)[C@H]1O` (stereo partly shown) [Glucor ™, Acarbose], the inhibition at 1000 µg/mL was found to be 93%.

Values taken from US20140199410A1, “EDIBLE BROWN ALGAE EXTRACT WITH A LOW IODINE CONTENT” (ALGUES ET MER, priority 2011, published 2014).
